Laboratory results from patent publication US9834773B2, “Methods and means for metabolic engineering and improved product formation by micro-organisms” (Universiteit Leiden, priority 2006, dated 2017).

Assays:
[1] = tested on: S. coelicolor M145, M510, M511, M512; assay: Pigmented antibiotic (actinorhodin, undecylprodigiosin) production on MM agar plates with or without GlcNAc; format: cell-based, Streptomyces coelicolor
Description: FIG. 2. Effect of dasR on development and antibiotic production. (A) Antibiotic production by S. coelicolor M145 and its dasR mutant BAP29 on minimal medium agar plates with or without GlcNAc. […] The latter is in line with our discovery that (i) ActV4A is enhanced in the mutant (FIG. 4) and (ii) the identification of a DasR-bound dre upstream of the pathway-specific activator genes actII-ORF4 for actinorhodin production and redZ for undecylprodigiosin production. Unexpectedly, the dasR mutant grown on minimal media with GlcNAc presents the expression of a yet unchartacterized green pigment. (B) Overexpression of DasR causes developmental arrest. Left, S. coelicolor M145 with control plasmid pUWL-KS; right, the same strain with a plasmid over-expressing dasR (grown for 4 days at 30° C.); note the almost complete lack of aerial hyphae (white) in the strain over-expressing DasR; (C) Scanning electron micrographs of aerial hyphae and spores of S. coelicolor M145 and the dasR mutant BAP29. […] Bars represent 5 μm. (D) Transmission electron micrographs of spores of M145 (left) and BAP29 (right). Arrows indicate the voids between the cell wall and the membrane. FD, full detachment; ID, incomplete detachment.
E. coli DH5α, and BL21(DE3) were used for subcloning and DasR overexpression experiments. S. coelicolor M145, M510 (M145 ΔredD), M511 (M145 ΔactII-IV) and M512 (M145 ΔactII-IV ΔredD) (Floriano and Bibb, 1996) and Streptomzyces lividans 1326 were all obtained from the John Innes Centre strain collection, Streptomyces avermitilis NRRL 8165 (MA-4680), Streptonzyces hygroscopicus ATCC27438, Streptomyces limosus ATCC 19778, Streptomyces rinzosus ATCC 10970, Streptonzyces roseosporus ATCC 31568 and Streptonzyces venezuelae ATCC15439 were obtained from the ATCC strain collection and Streptomyces acrinzycini DSM 40540, Streptomyces cinnanzonensis DSM 40467, Streptomyces clavuligerus NRRL 3585, Streptomyces collinus DSM 40733 and Streptomyces griseus NRRL B2682 from the DSMZ strain collection. The dasR mutant BAP29 (ΔdasR::accC4) was created by replacing the coding region of the gene by the apramycin resistance gene cassette, using plasmid pWHM3, according to a routine procedure (Nothaft et al., 2003). The same strategy was used to create the knock-out mutants for ptsH (BAP1), crr (BAP2), ptsI (BAP3), nagE1 (BAP4), nagE2 (BAP5), and nagE1/E2 (BAP6). BAP1-3 were published previously (Nothaft et al., 2003). S. coelicolor strains were grown at 28° C. using tryptic soy broth without dextrose as complex medium (TSB, Difco) or minimal medium (van Wezel et al., 2005). E. coli cultures were grown in Luria-Bertani broth (LB) at 37° C. Phenotypic characterization of mutants was done on minimal medium agar plates with various carbon sources as indicated in the text (Kieser et al., 2000). Quantification of Act and Red was performed as described previously (Martinez-Costa et al., 1996).
Arguing from the regulatory pathway deduced from the newly extended characterization of the DasR regulon (FIG. 22), we anticipated that DasR-dependent transport and phosphorylation of GlcNAc via the PTS could be a decisive signal to trigger actinorhodin and undecylprodigiosin biosynthesis in S. coelicolor. This hypothesis was tested by plating S. coelicolor M510 (ΔredD), M511 (ΔactII-ORF4) and M512 (ΔredD, ΔactII-ORF4) on MM agar plates with or without GlcNAc. […]

[2] = tested on: S. coelicolor M145 and BAP29 mycelia; assay: Sugar uptake assay with N-[14C]acetyl-D-glucosamine into mycelia; format: cell-based, Streptomyces coelicolor; settings: parent M145, cultures grown in glycerol and inducer (GlcNAc); 20 μM N-[14C]acetyl-D-glucosamine
Description: FIG. 8. DasR represses genes the N-acetylglucosamine regulon (A) Effect of deletion of dasR on the uptake of GlcNAc. Left, uptake in glycerol-grown cultures; right, uptake in cultures grown in glycerol and inducer (GlcNAc); note that expression was constitutive in BAP29. (B) Western blot analysis of HPr (top) and IIA^Crr (bottom), showing that inducibility of these PTS proteins is controlled by DasR. (C) Transcriptional analysis of crr (for IIA^Crr), nagE2 (for IIC^GlcNAc), malX2 (for IIB^GlcNAc), nagB and chiF by semi-quantitative RT-PCR. Samples were collected before and 15, 30 and 60 min after the addition of GlcNAc to exponentially growing minimal medium glycerol cultures. 16S rRNA was used as control.
Uptake assays with 20 μM N-[^14C]acetyl-D-glucosamine (6.2 mCi mmol^−1) into mycelia were performed as described (Nothaft et al., 2003).
Since many of the predicted DasR targets were involved in the fate of carbon sources (Table 2), we analyzed the effects of the dasR mutation on sugar import. […] This correlated to constitutive protein levels of the universal PTS phosphotransferases HPr and IIA^Crr (FIG. 8B), and was supported by RT-PCR of the respective genes (malX2, nagE2, crr-ptsI and ptsH; FIG. 8C) that encode the PTS permease complex (IIB^GlcNAc, IIC^GlcNAc, IIA^Crr, EI, HPr).

Compound: CC(=O)N[C@H]1C(O)O[C@H](CO)[C@@H](O)[C@@H]1O (stereo partly drawn) [N-acetylglucosamine]
- induction of the pigmented antibiotics actinorhodin and undecylprodigiosin ([1]; S. coelicolor M145, minimal medium agar plates with or without GlcNAc): required for induction
- production of Act (actinorhodin) ([1]; S. coelicolor M510 (ΔredD), MM agar, GlcNAc 10 mM, five days): induced
- production of Red (undecylprodigiosin) ([1]; S. coelicolor M511 (ΔactII-ORF4), MM agar, GlcNAc 10 mM, five days): induced
- pigmented antibiotic production ([1]; S. coelicolor M512 (ΔredD, ΔactII-ORF4), MM agar, GlcNAc 10 mM): No pigmented antibiotic was observed
- concentration at which the 'GlcNAc effect' was observed ([1]; effect of GlcNAc on antibiotic production and development): > 5 mM
- PTS-mediated uptake of GlcNAc [2]: induced
